Laboratory results published in patent publication EP2529738A1, “Substituted terpyridines” (Max-Delbrück-Centrum für Molekulare Medizin, priority 2011, dated 2012).
Entries after “also recorded” stand apart in the source; their conditions may differ.

Assays:
full length RIIα-His = target: T1, full length RIIα-His (Homo sapiens, UniProt P13861); test: saturation transfer difference (STD) NMR binding experiment; details: result in words; reduction in ligand peak intensity indicates binding
T1 construct: 20 µM unlabelled PKA-RIIα FL(1-404)-His; His (C)
T1 sequence (P13861 whole entry): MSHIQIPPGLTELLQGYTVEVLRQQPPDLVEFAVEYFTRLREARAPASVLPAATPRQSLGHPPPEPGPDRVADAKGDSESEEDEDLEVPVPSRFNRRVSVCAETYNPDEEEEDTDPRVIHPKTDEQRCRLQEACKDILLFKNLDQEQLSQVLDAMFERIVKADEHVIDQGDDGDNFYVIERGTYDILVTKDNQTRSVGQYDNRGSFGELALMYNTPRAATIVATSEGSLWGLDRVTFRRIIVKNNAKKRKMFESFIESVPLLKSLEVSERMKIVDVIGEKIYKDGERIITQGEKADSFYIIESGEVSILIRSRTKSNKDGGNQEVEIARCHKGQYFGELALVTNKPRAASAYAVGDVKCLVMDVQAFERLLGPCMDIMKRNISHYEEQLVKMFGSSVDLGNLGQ
Description: (§1) The compounds were tested first in a saturation transfer difference (STD) NMR experiment. For the STD experiments with the compounds depicted in table 1 full length RIIα-His was used as the target protein. Prior to measurements of STD spectra in the presence of the target protein, the same set of experiments was performed in the absence of protein in order to confirm that no saturation of the compound signals takes place when irradiating the sample at the frequency chosen for protein irradiation. […] Table 2: Qualitative results from STD and HSQC experiments with the indicated compounds.
Saturation transfer difference nuclear magnetic resonance (STD-NMR)
(§2) NMR samples for STD-NMR contained 0.1 mM of the indicated compound in NMR buffer, with a final concentration of d6-DMSO of 2%. Samples were measured in presence or absence of 20 µM unlabelled PKA-RIIα FL(1-404)-His.
STD-NMR experiments were recorded with the carrier frequency set to -1000 (around -1 ppm) for on-resonance irradiation and about 330 ppm for off-resonance irradiation. A train of 50 Gaussian-shaped pulses at 40 ms was applied, each separated by a 1-ms delay, for a total duration of 2.05 s, to achieve selective protein saturation. Spectra acquisition was done with 32 scans in absence of protein and 256 scans in presence of protein and a relaxation delay of 1.3 s. A T1ρ spin lock pulse of 40 ms was used to suppress the background protein signals. The STD spectrum was obtained from the internal subtraction of the on-resonance from the off-resonance data by phase cycling.

D/D domain of RIIα = target: T2, D/D domain of RIIα (Homo sapiens, UniProt P13861); test: 1H,15N-HSQC NMR binding experiment with 15N-labeled D/D domain; details: result in words; 100 µM 15N-labeled D/D domain, 300 µM compound
T2 construct: ^15N-isotopically enriched RIIα(1-44)
T2 sequence (P13861 1-44): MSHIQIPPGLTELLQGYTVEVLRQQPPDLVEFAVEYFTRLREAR
Description: For an estimate of binding specificity, the compounds were tested in a second NMR assay for binding to the D/D domain of RIIα. The D/D domain contains the AKAP binding site of RIIα. Therefore, suitable small molecule mimetics of the RIIBD of AKAP18 must bind to this domain of the full length protein. In other words, binding to the D/D domain is a good initial test for an AKAP-like, specific interaction of the compounds with RIIα.
For this purpose HSQC-experiments with ^15N-labeled D/D domain were employed with the compounds depicted in table 3. The results obtained correspond to the results from the STD experiments. […] In Fig. 5, HSQC-spectra of the D/D domain in presence and absence of 25b are depicted.
^1H,^15N-Heteronuclear Single Quantum Coherence (HSQC)-NMR)
^1H,^15N-HSQC-NMR experiments were carried on a 600 MHz spectrometer at 300 K.
^1H,^15N-correlation experiments using with ^15N-isotopically enriched RIIα(1-44) were recorded using a standard HSQC pulse program or an HMQC-SOFAST pulse program, both employing WATERGATE for solvent suppression.
The protein concentration employed for binding studies was in the order of 0.1 mM. The concentration of compounds was 0.3 mM for compounds and 0.8 mM for peptides, respectively. Experiments were performed in NMR buffer containing 5% d6-DMSO. Each step was followed by recording of a new spectrum. The acquisition time in the direct dimension was restricted to 150 ms. A total of 256 increments was recorded in the indirect dimension. [formula]

[1] = behaviour of the compound in the STD-NMR sample solution; assay type: physicochemical; details: 0.1 mM in NMR buffer, 2% d6-DMSO; no ligand peaks measurable by NMR
Description: as §1
In Fig. 4, the STD-spectra of a binding compound (25b) and a non-binding compound (14b) are depicted.
as §2

AKAP18α-PKA interaction = details: inhibition of AKAP18α-PKA interaction; cited from earlier work

Row | Molecule | binding of the compounds to RIIα in STD experiments (full length RIIα-His) | change in chemical shift of D/D domain signals upon addition of compound (D/D domain of RIIα) | solubility in the STD-NMR sample [1] | IC50 (AKAP18α-PKA interaction)
1 | Cc1c(-c2nc(CCCN(Cc3ccccc3)Cc3ccccc3)cc3c2CCC3)cnc(-c2cc(CCC(=O)O)cnc2C(N)=O)c1C [25a, 3-[6-carbamoyl-5-[5-[3-[3-(dibenzylamino)propyl]-6,7-dihydro-5H-cyclopenta[c]pyridin-1-yl]-3,4-dimethyl-2-pyridyl]-3-pyridyl]propanoic acid] | reduction in ligand peak intensity | – | – | –
2 | Cc1cc(-c2nc(CCCN(Cc3ccccc3)Cc3ccccc3)cc3c2CCC3)cnc1-c1cc(CCC(=O)O)cnc1C(N)=O [25b, 3-[6-carbamoyl-5-[5-[3-[3-(dibenzylamino)propyl]-6,7-dihydro-5H-cyclopenta[c]pyridin-1-yl]-3-methyl-2-pyridyl]-3-pyridyl]propanoic acid] | reduction in ligand peak intensity | change in chemical shift of D/D domain signals was observed | – | –
3 | CCOC(=O)CCc1cnc(C#N)c(-c2ncc(-c3nc(CCCN(Cc4ccccc4)Cc4ccccc4)cc4c3CCC4)c(C)c2C)c1 [22a, Ethyl 3-(6-cyano-5-(5-(3-(3-(dibenzylamino)propyl)-6,7-dihydro-5H-cyclopenta[c]pyridin-1-yl)-3,4-dimethylpyridin-2-yl)pyridine-3-yl)propanoate] | – | – | precipitated from solution; also recorded: crystallized from the solution | –
4 | PEDAELVRLSKRLVENAVEKAVQQY (SEQ ID 01) [AKAP18δ-L314E] | – | – | – | low nanomolar range
5 | CCOC(=O)CCc1cnc(C#N)c(-c2ncccc2C)c1 [compound 27] | No binding was detected | no perturbation of chemical shifts | – | –
6 | Cc1cc(-c2nc(CCCN)cc3c2CCC3)cnc1-c1cc(CCC(=O)O)cnc1C(N)=O [14b] | No binding was detected | no perturbation of chemical shifts | – | –
7 | Cc1cc(-c2nc(CCCNCc3ccccc3)cc3c2CCC3)cnc1-c1cc(CCC(=O)O)cnc1C(N)=O [14c] | No binding was detected | no perturbation of chemical shifts | – | –
